# Results published in ChEMBL document CHEMBL1201862, “PubChem BioAssay data set” (2004).
# The source made the active and inactive calls. Rule as the data show it, for most assays here: actives have a measured IC50 and inactives only a lower limit.
# Legend:
# SUMO-activating enzyme [1] = molecular target: T1, SUMO-activating enzyme (Homo sapiens, UniProt Q9UBT2); assay: blockers of SAE1/SAE2–UBC9 SUMO transfer – biochemical, HTRF, uHTS, primary screen (AID 2006); assay type: protein-complex assay
# SUMO E1/E2 = SUMO E1/E2 (Homo sapiens, UniProt P63279+Q9UBE0+Q9UBT2); assay: SAR analysis of SUMOylation using HTRF in an in-Vitro dose response assay. [Related pubchem assays (depositor defined):AID2006, AID2011, AID2018, AID2069, AID2658]; assay type: functional
# [2] = molecular target: T2, Carboxy-terminal domain RNA polymerase II polypeptide A small phosphatase 1 (Homo sapiens, UniProt Q9GZU7); assay: CTDSP1 inhibitors, concentration-response, biochemical, absorbance readout, ultra-high-throughput screen actives (AID 540297); assay type: functional
# T2 sequence (Q9GZU7 whole entry): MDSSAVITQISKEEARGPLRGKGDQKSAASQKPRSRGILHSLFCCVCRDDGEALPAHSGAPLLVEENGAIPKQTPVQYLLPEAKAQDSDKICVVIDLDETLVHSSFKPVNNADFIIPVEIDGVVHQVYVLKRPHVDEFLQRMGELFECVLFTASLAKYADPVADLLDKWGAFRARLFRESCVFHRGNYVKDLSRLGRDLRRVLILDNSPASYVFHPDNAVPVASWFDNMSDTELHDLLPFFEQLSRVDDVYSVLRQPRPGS
# SUMO-activating enzyme [3] = molecular target: T1, SUMO-activating enzyme; assay: blockers of UBC9-mediated SUMO conjugation – biochemical, AlphaScreen, SUMOylation inhibitor project, confirmation (AID 2018); assay type: functional
# HEK293 [4] = assay: cells; assay type: functional, cell-based; conditions: Homo sapiens
# HEK293 [5] = assay: NOD2 signaling inhibitors in MDP-stimulated cells, cell-based, uHTS, luminescence (AID 2001); assay type: functional; conditions: Homo sapiens
# HEK293 [6] = assay: inhibition of NOD1-driven NF-kB reporter – cell-based, luminescence, uHTS, primary screen (AID 1578); assay type: functional; conditions: Homo sapiens
# HEK293 [7] = assay: cells; assay type: functional, cell-based; conditions: Homo sapiens; remark: listed apart in the source
# [8] = molecular target: Lysine-specific demethylase 4C (Homo sapiens, UniProt Q9H3R0); assay: inhibition of JMJD2C H3K9me3 demethylation – biochemical, DELFIA europium, cherry-picked samples, dose response (AID 488835); assay type: functional
# [9] = molecular target: T3, Tyrosine-protein phosphatase non-receptor type 7 (Homo sapiens, UniProt P35236); assay type: functional
# T3 sequence (P35236 whole entry): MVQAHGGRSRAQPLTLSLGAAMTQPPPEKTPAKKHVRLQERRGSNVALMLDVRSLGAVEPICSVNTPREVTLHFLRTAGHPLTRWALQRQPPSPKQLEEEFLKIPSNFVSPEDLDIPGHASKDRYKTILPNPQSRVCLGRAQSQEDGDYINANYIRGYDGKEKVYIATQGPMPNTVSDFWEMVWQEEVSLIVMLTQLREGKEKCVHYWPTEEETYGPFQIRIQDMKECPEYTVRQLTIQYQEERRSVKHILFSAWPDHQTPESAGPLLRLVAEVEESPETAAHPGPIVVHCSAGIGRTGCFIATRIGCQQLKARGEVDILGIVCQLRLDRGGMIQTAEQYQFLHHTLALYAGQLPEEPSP
# [10] = molecular target: T4, Tyrosine-protein phosphatase non-receptor type 22 (Homo sapiens, UniProt Q9Y2R2); assay type: functional
# T4 sequence (Q9Y2R2 whole entry): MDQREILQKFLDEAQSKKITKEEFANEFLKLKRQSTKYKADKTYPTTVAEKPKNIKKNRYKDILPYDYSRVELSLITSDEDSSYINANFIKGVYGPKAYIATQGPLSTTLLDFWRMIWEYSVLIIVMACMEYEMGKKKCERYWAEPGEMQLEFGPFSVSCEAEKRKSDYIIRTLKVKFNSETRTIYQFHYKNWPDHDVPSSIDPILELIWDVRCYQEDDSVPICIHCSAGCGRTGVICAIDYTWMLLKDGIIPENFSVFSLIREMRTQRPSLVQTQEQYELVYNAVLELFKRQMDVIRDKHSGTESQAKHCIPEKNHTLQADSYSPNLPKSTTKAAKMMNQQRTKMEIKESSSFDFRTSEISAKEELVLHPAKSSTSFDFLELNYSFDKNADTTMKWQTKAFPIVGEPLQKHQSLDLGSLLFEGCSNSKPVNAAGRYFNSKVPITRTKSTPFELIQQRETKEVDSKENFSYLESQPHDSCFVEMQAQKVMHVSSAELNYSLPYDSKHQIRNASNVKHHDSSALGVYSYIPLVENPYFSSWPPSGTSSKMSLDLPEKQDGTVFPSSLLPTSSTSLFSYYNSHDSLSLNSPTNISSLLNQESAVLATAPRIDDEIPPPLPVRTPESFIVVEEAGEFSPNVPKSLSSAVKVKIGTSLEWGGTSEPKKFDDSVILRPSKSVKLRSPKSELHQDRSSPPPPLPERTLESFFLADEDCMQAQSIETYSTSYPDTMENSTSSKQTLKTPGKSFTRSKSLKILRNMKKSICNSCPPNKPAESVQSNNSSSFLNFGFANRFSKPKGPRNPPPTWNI
# [11] = molecular target: T4, Tyrosine-protein phosphatase non-receptor type 22; assay type: functional; remark: listed apart in the source
# HEK293 [12] = assay: cells; assay type: functional, cell-based; conditions: Homo sapiens; remark: listed apart in the source
# [13] = non-specific 3'UTR reporter inhibition in Clone20-Shn3RL – cell-based, Renilla luciferase, cherry-picked, counter-screen for Shn3 inhibitor project, dose response (AID 624133); assay type: functional
# [14] = molecular target: T5, Nucleotide-binding oligomerization domain-containing protein 1 (Homo sapiens, UniProt Q9Y239); assay: blockers of NOD1 pathway activity – revised, SAR follow-up (AID 2333); assay type: functional
# T5 sequence (Q9Y239 whole entry): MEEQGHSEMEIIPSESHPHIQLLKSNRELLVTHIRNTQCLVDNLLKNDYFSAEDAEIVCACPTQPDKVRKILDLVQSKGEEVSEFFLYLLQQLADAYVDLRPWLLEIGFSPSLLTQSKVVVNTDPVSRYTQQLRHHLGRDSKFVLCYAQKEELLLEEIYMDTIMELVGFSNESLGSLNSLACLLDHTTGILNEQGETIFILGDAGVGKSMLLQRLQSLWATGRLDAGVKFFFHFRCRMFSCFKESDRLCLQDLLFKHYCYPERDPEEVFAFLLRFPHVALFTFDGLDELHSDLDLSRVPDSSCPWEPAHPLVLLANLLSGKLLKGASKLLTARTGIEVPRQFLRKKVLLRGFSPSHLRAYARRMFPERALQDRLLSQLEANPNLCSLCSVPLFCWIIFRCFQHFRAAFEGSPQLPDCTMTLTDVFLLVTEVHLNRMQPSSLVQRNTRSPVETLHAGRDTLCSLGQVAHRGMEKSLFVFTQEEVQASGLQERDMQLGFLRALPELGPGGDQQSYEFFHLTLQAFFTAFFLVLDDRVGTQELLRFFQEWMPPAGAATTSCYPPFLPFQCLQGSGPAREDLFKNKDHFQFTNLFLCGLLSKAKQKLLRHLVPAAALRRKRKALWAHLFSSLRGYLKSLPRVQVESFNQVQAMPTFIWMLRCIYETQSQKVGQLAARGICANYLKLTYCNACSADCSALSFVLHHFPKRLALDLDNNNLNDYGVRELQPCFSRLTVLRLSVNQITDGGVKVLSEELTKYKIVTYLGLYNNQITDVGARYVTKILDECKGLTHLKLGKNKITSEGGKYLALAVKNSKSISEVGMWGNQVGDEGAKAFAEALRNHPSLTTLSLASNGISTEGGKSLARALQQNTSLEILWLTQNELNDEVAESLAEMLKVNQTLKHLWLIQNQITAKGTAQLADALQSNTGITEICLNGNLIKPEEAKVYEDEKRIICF
# [15] = reduction of Shn3 3'UTR-driven luciferase in osteoblasts – cell-based, Clone20 osteoblasts, firefly luciferase, cherry-picked, dose response (AID 624132); assay type: functional;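 also: firefly luciferase luminescence from reporter carrying the Shn3 3'UTR in osteoblasts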
# [16] = molecular target: Nucleotide-binding oligomerization domain-containing protein 2 (Homo sapiens, UniProt Q9HC29); assay: inhibition of NOD2-driven NF-kB reporter – cell-based, luminescence, uHTS, HEK293 (AID 1566); assay type: functional
# [17] = loss of viability in HepG2 cells – cell-based, CellTiter-Glo, cherry-picked, cytotoxicity control for Shn3 inhibitor project, dose response (AID 624134); assay type: functional
# [18] = molecular target: T6, Zinc finger protein mex-5 (Caenorhabditis elegans, UniProt Q9XUB2); assay: potency of MEX-5 RNA-binding blockers – biochemical, C. elegans, fluorescence polarization, dose response (AID 1960)
# T6 sequence (Q9XUB2 whole entry): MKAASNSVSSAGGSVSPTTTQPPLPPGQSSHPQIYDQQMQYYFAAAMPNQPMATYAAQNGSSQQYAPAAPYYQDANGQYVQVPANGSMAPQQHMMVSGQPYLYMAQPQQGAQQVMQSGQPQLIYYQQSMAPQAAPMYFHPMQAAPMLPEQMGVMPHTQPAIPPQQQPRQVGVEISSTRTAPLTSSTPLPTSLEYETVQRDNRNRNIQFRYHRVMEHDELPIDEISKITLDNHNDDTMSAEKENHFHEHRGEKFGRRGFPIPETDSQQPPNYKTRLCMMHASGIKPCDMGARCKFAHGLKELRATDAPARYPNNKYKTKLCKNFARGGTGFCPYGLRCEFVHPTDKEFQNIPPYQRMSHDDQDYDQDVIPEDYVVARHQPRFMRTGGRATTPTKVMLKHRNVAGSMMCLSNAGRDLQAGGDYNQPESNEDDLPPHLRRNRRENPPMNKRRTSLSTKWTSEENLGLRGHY
# [19] = molecular target: T7, RNA-binding protein pos-1 (Caenorhabditis elegans, UniProt G5EF15); assay: disruptors of C. elegans POS-1 RNA interaction – biochemical, fluorescence polarization, dose response (AID 1964);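 also: purified POS-1 fused to maltose binding protein made in E. coli; potency of compounds blocking POS-1 binding to fluorescent RNA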
# T7 sequence (G5EF15 whole entry): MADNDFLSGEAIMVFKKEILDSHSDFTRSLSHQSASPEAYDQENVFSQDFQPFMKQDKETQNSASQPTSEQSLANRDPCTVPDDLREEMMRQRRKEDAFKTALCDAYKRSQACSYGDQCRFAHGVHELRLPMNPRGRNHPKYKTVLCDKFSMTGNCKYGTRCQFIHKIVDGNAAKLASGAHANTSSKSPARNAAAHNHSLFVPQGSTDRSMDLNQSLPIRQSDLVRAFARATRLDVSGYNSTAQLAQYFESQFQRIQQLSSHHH
# [20] = molecular target: T8, Alkaline phosphatase, tissue-nonspecific isozyme (Homo sapiens, UniProt P05186); assay: potency against alkaline phosphatase TNAP – biochemical, luminescent, dose response, SAR follow-up (AID 1056)
# T8 sequence (P05186 whole entry): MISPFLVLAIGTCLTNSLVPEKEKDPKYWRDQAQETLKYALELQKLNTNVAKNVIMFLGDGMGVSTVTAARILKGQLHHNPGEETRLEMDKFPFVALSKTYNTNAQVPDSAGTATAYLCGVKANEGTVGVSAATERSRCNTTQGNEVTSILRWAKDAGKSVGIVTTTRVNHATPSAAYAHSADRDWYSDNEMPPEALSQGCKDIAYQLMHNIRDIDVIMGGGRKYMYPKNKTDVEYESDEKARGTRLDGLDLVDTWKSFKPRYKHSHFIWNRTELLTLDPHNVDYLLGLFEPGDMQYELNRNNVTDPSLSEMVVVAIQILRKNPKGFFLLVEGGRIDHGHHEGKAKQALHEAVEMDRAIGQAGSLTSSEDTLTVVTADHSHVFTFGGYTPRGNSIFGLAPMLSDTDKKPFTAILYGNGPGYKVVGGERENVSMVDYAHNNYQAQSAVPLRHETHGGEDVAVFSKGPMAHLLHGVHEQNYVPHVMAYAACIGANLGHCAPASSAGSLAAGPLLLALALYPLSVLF
# [21] = molecular target: Alkaline phosphatase, placental type (Homo sapiens, UniProt P05187); assay: human placental alkaline phosphatase inhibition – biochemical, luminescence, confirmation (AID 1512); assay type: functional
# Alkaline phosphatase, placental type, sequence (P05187 whole entry): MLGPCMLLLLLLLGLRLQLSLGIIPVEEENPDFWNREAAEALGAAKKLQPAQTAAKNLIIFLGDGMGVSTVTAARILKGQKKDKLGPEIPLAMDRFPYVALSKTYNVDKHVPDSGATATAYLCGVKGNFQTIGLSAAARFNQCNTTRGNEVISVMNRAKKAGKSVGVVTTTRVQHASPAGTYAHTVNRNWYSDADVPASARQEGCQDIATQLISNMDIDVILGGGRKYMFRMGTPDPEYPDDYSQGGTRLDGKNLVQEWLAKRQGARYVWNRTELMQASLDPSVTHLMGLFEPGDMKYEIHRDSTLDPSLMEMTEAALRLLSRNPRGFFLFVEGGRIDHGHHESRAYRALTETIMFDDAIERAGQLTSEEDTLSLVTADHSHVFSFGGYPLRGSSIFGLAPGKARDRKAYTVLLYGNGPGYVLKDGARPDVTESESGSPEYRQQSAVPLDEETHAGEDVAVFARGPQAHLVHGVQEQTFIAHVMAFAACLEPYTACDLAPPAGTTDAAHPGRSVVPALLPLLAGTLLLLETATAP
# T1 sequence (Q9UBE0 whole entry): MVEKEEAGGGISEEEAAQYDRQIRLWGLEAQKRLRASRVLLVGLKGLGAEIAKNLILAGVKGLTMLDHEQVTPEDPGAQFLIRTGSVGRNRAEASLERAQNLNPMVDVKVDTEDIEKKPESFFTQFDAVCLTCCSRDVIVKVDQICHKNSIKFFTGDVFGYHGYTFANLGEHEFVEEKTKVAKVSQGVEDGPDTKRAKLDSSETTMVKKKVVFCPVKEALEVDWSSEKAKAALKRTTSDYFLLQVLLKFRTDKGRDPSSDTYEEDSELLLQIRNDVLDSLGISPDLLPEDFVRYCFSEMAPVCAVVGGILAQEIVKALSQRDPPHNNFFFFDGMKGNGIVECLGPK
# T1 sequence (Q9UBT2 whole entry): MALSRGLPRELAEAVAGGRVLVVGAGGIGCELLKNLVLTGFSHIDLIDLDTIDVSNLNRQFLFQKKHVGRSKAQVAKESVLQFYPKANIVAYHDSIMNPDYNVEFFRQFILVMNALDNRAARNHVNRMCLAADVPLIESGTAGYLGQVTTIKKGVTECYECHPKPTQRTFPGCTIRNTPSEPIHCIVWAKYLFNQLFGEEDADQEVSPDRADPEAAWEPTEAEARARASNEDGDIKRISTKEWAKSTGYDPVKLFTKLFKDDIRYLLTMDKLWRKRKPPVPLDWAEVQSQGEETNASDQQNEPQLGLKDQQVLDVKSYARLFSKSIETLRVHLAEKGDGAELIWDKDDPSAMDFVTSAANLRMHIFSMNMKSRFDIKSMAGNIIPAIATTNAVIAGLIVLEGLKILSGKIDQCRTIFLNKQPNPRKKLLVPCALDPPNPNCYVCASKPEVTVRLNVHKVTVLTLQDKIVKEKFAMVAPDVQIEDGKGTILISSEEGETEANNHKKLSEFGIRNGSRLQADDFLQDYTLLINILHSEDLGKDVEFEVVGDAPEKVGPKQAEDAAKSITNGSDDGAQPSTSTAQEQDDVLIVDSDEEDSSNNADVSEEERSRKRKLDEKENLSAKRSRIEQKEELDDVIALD
# Lysine-specific demethylase 4C, sequence (Q9H3R0 whole entry): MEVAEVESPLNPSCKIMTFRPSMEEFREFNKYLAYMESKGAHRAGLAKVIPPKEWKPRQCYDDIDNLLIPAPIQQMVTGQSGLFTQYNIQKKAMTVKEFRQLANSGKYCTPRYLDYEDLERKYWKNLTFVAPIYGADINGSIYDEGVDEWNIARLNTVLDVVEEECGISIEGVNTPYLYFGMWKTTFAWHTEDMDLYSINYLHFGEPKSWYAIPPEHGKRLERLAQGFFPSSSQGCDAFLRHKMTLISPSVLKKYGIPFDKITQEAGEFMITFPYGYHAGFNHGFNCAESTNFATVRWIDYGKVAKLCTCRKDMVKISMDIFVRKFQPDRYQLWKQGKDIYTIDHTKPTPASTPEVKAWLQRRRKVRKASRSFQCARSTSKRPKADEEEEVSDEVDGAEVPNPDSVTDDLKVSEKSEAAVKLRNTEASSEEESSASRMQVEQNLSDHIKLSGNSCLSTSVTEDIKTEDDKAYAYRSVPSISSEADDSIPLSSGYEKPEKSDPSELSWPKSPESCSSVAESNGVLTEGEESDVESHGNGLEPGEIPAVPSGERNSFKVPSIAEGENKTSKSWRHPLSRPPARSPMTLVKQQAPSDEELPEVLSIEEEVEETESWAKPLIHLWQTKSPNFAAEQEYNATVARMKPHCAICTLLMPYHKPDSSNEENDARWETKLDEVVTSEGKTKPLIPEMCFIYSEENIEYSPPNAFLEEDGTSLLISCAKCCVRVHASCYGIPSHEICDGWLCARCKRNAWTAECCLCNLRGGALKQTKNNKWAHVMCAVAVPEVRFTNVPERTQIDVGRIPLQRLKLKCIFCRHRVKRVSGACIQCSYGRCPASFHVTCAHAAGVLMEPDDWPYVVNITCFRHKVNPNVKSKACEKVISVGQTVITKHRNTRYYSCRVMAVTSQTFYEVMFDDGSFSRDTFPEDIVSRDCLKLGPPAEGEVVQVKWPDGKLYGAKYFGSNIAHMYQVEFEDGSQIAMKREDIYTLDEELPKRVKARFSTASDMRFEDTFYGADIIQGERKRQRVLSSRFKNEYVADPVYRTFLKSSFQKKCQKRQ
# Nucleotide-binding oligomerization domain-containing protein 2, sequence (Q9HC29 whole entry, the tested form may be a part): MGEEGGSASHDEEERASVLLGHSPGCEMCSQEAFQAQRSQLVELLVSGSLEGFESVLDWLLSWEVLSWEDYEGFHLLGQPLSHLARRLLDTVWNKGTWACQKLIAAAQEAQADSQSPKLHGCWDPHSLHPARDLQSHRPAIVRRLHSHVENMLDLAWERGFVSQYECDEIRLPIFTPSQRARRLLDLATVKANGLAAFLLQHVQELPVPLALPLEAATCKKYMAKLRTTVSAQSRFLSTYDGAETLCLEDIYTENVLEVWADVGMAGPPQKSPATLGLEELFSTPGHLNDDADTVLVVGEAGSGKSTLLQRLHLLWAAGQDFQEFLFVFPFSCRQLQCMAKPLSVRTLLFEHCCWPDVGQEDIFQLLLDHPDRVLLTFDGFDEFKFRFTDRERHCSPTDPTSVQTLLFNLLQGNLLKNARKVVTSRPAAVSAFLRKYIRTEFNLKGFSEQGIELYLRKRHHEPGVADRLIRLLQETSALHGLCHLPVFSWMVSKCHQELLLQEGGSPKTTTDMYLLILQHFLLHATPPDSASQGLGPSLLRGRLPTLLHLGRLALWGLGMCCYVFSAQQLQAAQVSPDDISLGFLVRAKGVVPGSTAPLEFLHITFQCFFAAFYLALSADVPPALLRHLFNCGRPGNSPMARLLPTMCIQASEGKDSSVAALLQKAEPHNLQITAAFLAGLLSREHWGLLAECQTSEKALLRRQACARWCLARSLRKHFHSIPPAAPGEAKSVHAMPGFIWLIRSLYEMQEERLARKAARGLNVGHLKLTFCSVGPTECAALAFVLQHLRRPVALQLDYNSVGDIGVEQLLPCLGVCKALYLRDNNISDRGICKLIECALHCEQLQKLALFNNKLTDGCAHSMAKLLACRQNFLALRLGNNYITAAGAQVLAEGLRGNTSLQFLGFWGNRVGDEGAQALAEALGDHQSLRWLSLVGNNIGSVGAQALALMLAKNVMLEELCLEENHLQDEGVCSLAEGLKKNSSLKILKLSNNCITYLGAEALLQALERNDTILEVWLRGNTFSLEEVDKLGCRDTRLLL
# SUMO E1/E2, sequence (Q9UBE0 whole entry, the tested form may be a part): as the sequence (Q9UBE0 whole entry) above
# SUMO E1/E2, sequence (Q9UBT2 whole entry, the tested form may be a part): as the sequence (Q9UBT2 whole entry) above
# SUMO E1/E2, sequence (P63279 whole entry, the tested form may be a part): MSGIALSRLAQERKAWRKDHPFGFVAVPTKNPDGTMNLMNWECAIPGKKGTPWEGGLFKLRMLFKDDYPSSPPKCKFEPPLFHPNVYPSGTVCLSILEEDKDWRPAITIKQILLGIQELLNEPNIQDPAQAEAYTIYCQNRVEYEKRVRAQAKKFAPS
structure (smiles),measurement,setting,value
Cc1ccccc1NC(=O)Cn1c(O)c(N=NC(=O)c2ccccc2O)c2ccccc21,IC50,SUMO-activating enzyme [1],9.83 µM (active)
same,IC50,SUMO E1/E2,49.7 µM (active)
same,IC50,[2],1.23 µM (active)
same,IC50,SUMO-activating enzyme [3],8.06 µM (active)
CN(C)S(=O)(=O)N1CCC(Oc2cccc(C(=O)NC3CCCCC3)c2)CC1,IC50,HEK293 [4],18.8 µM (active)
same,IC50,HEK293 [5],17.5 µM (inactive)
same,EC50,HEK293 [6],6.77 µM (active)
same,IC50,HEK293 [7],11.3 µM (active)
O=c1cc(N2CCc3ccccc32)[nH]c(=O)n1-c1ccccc1,AC50,[8],20.7 µM (active)
COc1ccc(Cl)cc1-c1nc(N)nc(NC2CCCCC2)n1,IC50,[9],> 79.4 µM (inactive)
same,IC50,[10],> 79.4 µM (inactive)
same,IC50,[11],> 79.4 µM (inactive)
COc1cc(CC2C(=O)N(C)C(=O)N(C)C2=O)ccc1OCc1ccccc1,AC50,[8],7.97 µM (active)
CC1=C(C(=O)NC2CCCc3c2cnn3-c2cccc(C)c2C)OCCO1 (stereo not given),IC50,HEK293 [5],11.6 µM (inactive)
same,IC50,HEK293 [12],> 20 µM (inactive)
same,EC50,HEK293 [6],5.36 µM (active)
same,AC50,[13],3.14 µM (active)
same,IC50,[14],4.06 µM (active)
same,AC50,[15],3.49 µM (active)
same,EC50,[16],> 20 µM (inactive)
same,AC50,[17],34.1 µM (active)
COCCn1c(=N)c(S(=O)(=O)c2ccc(Br)cc2)cc2c(=O)n3ccccc3nc21,IC50,[9],> 79.4 µM (inactive)
same,IC50,[10],> 79.4 µM (inactive)
same,EC50,[18],4.16 µM (active)
same,IC50,[11],> 79.4 µM (inactive)
same,EC50,[19],> 300 µM (inconclusive)
COc1ccc(-c2cc(C(=O)NCCc3ccc(O)c(O)c3)c3ccccc3n2)cc1,IC50,[20],> 100 µM (inactive)
same,IC50,[21],> 100 µM (inactive)
CCOc1ccc(-n2c(SCC(=O)c3ccc(O)c(O)c3)nnc2-c2ccc(OC)cc2)cc1,IC50,[20],> 100 µM (inactive)
same,IC50,[21],> 100 µM (inactive)
